From patent publication US20090012152A1, “Use of Tetramic Acid Derivatives for Controlling Insects from the Genus of the Plane Lice (Sternorrhyncha)” (Bayer CropScience Aktiengesellschaft, priority 2005, published 2009)

What was measured:
Assay type in all cases: in vivo
[1] = system: Paratrioza cockerelli; test: Example 9: tomatoes treated against Paratrioza cockerelli; conditions: nymphs on leaves, g a.i./ha: Levarage 81, I-4 48
Procedure: In three replications, plots of a size of 10 m^2 with tomatoes are treated against Paratrioza cockerelli. Application is carried out using a knapsack sprayer operated with pressurized air. Here, the active compound Example (I-4) (240 SC) in a tank mix with 0.2% a.i. of rapeseed oil methyl ester (500 EW) and the commercial standard Leverage (324 SE) are tested at the stated application rates. There are two applications at an interval of 7 days. The application rate is 345 l of water/ha.
Evaluation is carried out 7, 14 and 21 days after the first treatment by rating the kill of the animals (nymphs) on the leaves.

[2] = system: Aspidiotus neri; test: Example 20: lime trees treated against Aspidiotus neri; conditions: 167 d after treatment, on fruits, % a.i.: Dursban 0.096, Juvinal 0.005, I-4 0.0072
Procedure: In four replications, about 5-year-old lime trees of the cultivar “Fino” are treated against Aspidiotus neri. The application is carried out using a knapsack sprayer. Here, the active compound Example (I-4) (240 SC) in a tank mix with 0.1% a.i. of rapeseed oil methyl ester (500 EW) at the stated application rate is tested against the standards Dursban (480 EC) and Juvinal (100 EC) at the stated amounts, applied once. The application rate is 3000 l of water/ha per tree.
Evaluation is carried out 167 days after the treatment by rating the kill on the fruits.

[3] = system: Orthezia praelonga; test: Example 25: orange trees treated against Orthezia praelonga; conditions: population on leaves, % a.i.: methidathion 0.05, I-4 0.0144, I-9 0.0144
Procedure: In two replications, two about 7-year-old orange trees of the cultivar “Pera Rio” are treated against Orthezia praelonga. Here, the active compounds Example (I-4) (240 SC) and Example (I-9) (240 SC), in a tank mix with 0.1% a.i. of Renex, are tested against the commercial standard Methidathion (400 EC), at the stated application rates. The application is carried out using a knapsack sprayer operated with pressurized air. Evaluation is carried out 6 and 16 days after the treatment by rating the kill of the population on the leaves.

[4] = system: Planococcus spp.; test: Example 29: vines treated against Planococcus spp.; conditions: larvae on grapes, rate %/1: Dursban 0.096, I-4 0.0096
Procedure: In three replications, in plots of a size of 54 m^2, about 10-year-old vines of the cultivar “Napoleon” are treated against Planococcus spp. The application is carried out using a knapsack sprayer. Here, the active compound Example (I-4) (240 SC), in a tank mix with 0.1% a.i. of rapeseed oil methyl ester (500 EW), is tested against the commercial standard Dursban (480 EC), at the stated application rates. The application rate is 864 l of water/ha. Two treatments are carried out, at an interval of 19 days.
Evaluation is carried out 16 and 38 days after the second treatment by rating the kill of the larvae on the grapes.

[5] = system: Myzus persicae; test: Example 46: head lettuce treated against Myzus persicae; conditions: nymphs on plants, g a.i./ha: endosulfan 1120, I-4 48
Procedure: In four replications, plots of a size of about 33 m^2 with head lettuce of the cultivar “PIC 714” are treated against Aulacorthum solani, Macrosiphum euphorbiae and Myzus persicae. The application is carried out using a tractor sprayer. Here, the active compound Example (I-4) (240 SC), in a tank mix with 0.2% a.i. of rapeseed oil methyl ester (500 EW), is tested against the commercial standard endosulfan (360 EC), at the stated application rates. The application rate is 187 l of water/ha. Two treatments are carried out, at an interval of 22 days.
Evaluation is carried out 8, 22, 30 and 40 days after the first treatment by rating the kill of the nymphs on the plants.

[6] = system: Myzus persicae; test: Example 49: potatoes treated against Myzus persicae; conditions: live nymphs on leaves, Henderson and Tilten, g a.i./ha: Tamaron 585, I-4 48
Procedure: In four replications, plots of a size of about 7.5 m^2 with potatoes of the cultivar “BP 1” are treated against Myzus persicae. The application is carried out using a knapsack sprayer operated with pressurized air. Here, the active compound Example (I-4) (240 SC), in a tank mix with 0.2% a.i. of rapeseed oil methyl ester (500 EW), and the commercial standard Tamaron (585 SL) are tested at the stated application rates. Two applications are carried out, at an interval of 7 days. The application rate is 500 l of water/ha.
Evaluation is carried out 7 and 13 days after the first treatment by counting the live animals (nymphs) on the leaves. The efficacy is then calculated by calculating the effect on the population in percent according to Henderson and Tilten.

[7] = system: Myzus persicae; test: Example 54: bell pepper plants treated against Myzus persicae; conditions: on leaves, g a.i./ha: Provado 50, I-4 48
Procedure: In four replications, plots of a size of about 8.4 m^2 with 36 11-week-old bell pepper plants of the cultivar “Casea dura ikeda” are treated against Myzus persicae. The application is carried out using a knapsack sprayer operated with pressurized air. Here, the active compound Example (I-4) (240 SC), in a tank mix with 0.2% a.i. of rapeseed oil methyl ester (500 EW), is tested against the commercial standard Provado (200 SC), at the stated application rates. The application rate is 600 l of water/ha. There are three applications, in each case at an interval of 7 d.
Evaluation is carried out 1, 7, and 14 days after the last treatment by rating the kill of the animals on the leaves.

[8] = system: Macrosiphum euphorbiae; test: Example 55: strawberry plants treated against Macrosiphum euphorbiae; conditions: nymphs on strawberry plants, g a.i./ha: Calypso 120, I-4 75
Procedure: In four replications, plots of a size of about 3 m^2 with 3-week-old strawberry plants are treated against Macrosiphum euphorbiae and Rhodobium porosum. The application is carried out using a knapsack sprayer operated with pressurized air. Here, the active compound Example (I-4) (150 OD) and the commercial standard Calypso (480 SC) are tested at the stated application rates. Here, the standard is sprayed as a tank mix with 0.03% of Motto (adjuvant). The application rate is 500 l of water/ha.
Evaluation is carried out 7 and 14 days after the second treatment by rating the kill of the nymphs on the plants.

[9] = 7 d after first of two treatments

CCOC(=O)OC1=C(c2cc(C)ccc2C)C(=O)NC12CCC(OC)CC2 (stereo not drawn) [Example (I-4)]
Kill (%) 7 d [1, 9]: 71.3% | Kill (%) 14 d ([1]; 14 d after first of two treatments): 90.3% | Kill (%) 21 d ([1]; 21 d after first of two treatments): 95.5% | Kill (%) 167 d [2]: 96.2% | Kill (%) 6 d ([3]; 6 d after treatment): 94% | Kill (%) 16 d ([3]; 16 d after treatment): 76% | Kill (%) 16 d ([4]; 16 d after second treatment): 94.4% | Kill (%) 38 d ([4]; 38 d after second treatment): 91.9% | Kill (%) 8 d ([5]; 8 d after first of two treatments): 95% | Kill (%) 22 d ([5]; 22 d after first of two treatments): 100% | Kill (%) 30 d ([5]; 30 d after first of two treatments): 88% | Effect (%) 7 d [6, 9]: 67% | Effect (%) 13 d ([6]; 13 d after first of two treatments): 100% | Kill (%) 1 d ([7]; 1 d after last of three treatments): 99.1% | Kill (%) 7 d ([7]; 7 d after last of three treatments): 98.5% | Kill (%) 14 d ([7]; 14 d after last of three treatments): 100% | Macrosiphum euphorbiae Kill (%) 7 d ([8]; 7 d after second treatment): 62.2% | Macrosiphum euphorbiae Kill (%) 14 d ([8]; 14 d after second treatment): 94%
